Experimental data from patent EP4512427A1, “ANTIBODY-DRUG CONJUGATES BASED ON MOLECULAR GLUE DEGRADERS AND USES THEREOF” (Mablink Bioscience, priority 2023, dated 2025).

How the values were obtained:
BT-474 = assay: In vitro cytotoxicity assay (MTT); assay type: cell-based, human; settings: BT-474, 6 days incubation, MTT
Experimental: (§1) In vitro cytotoxicity of compounds of the disclosure was assessed on several cancerous human cell lines. Cells were plated in 96-well plates at an appropriate density depending on the cell line (between 1000 and 10 000 cells/well in 100µL of appropriate culture media) and incubated at 37°C for 24 hours. Serial dilutions of the tested compound previously dissolved in culture media (50µL) were added, and incubation was carried at 37°C out for 6 days. MTT (5mg/mL in PBS, 20µL, Sigma-Aldrich) was added into the wells, and incubation was continued for 1 to 4 hours at 37°C. Culture media was then carefully removed, and well content was homogeneously dissolved with acidified isopropanol. Absorbance values were measured on a microplate reader using a wavelength of 570 nm (with a reference wavelength of 690 nm). The IC50 concentration values compared to untreated control cells were determined using inhibition dose response curve fitting (GraphPad Prism 9). Exatecan mesylate (cat#HY-13631A) and CR8 (CAS# 294646-77-8; cat#HY-18340) were purchased from MedChemExpress (China).

JIMT-1 = assay: In vitro cytotoxicity assay (MTT); assay type: cell-based, human; settings: 6 days incubation
Experimental: as §1

MDA-MB-231 = assay: In vitro cytotoxicity assay (MTT); assay type: cell-based, human; settings: 6 days incubation
Experimental: as §1

MDA-MB-453 = assay: In vitro cytotoxicity assay (MTT); assay type: cell-based, human; settings: 6 days incubation
Experimental: as §1

NCI-N87 = assay: In vitro cytotoxicity assay (MTT); assay type: cell-based, human; settings: 6 days incubation
Experimental: as §1

SKBR-3 = assay: In vitro cytotoxicity assay (MTT); assay type: cell-based, human; settings: 6 days incubation
Experimental: as §1

[1] = system: cancerous human cell lines; assay: In vitro cytotoxicity assay (MTT), side-by-side comparisons over the cell line panel; assay type: cell-based; settings: side-by-side comparison (Figures 1-3, Table 3), result in words
Experimental: as §1

CycK = CycK protein quantification by Western Blot; assay type: cell-based, human
Experimental: 1×10^6 JIMT-1 cells were plated in 3mL of DMEM/FBS 90:10 (v/v) in 6-well plates and incubated overnight. Cells were treated with the compound 2384 of the invention with or without the proteasome inhibitor MG-132 (MedChemExpress, Cat HY-13259) for 2h. Cells were harvested, and protein were extracted using complete RIPA buffer (RIPA buffer, 1 mM DTT, 1M NaF, 100 mM sodium orthovanadate, phosphatase inhibitor buffer and protease inhibitors) for 1 hour on ice. Lysate were centrifuged 15min at 12 000g at 4°C. and proteins were mixed with 4x Laemmli Sample Buffer (Bio-Rad), heated at 95 °C for 5 mins and separated by SDS PAGE (PROTEAN TGX Stain-Free Gels, Bio-Rad). Proteins were then transferred onto PVDF membrane (iBlot®2 PVDF stacks, Invitrogen) using the iBlot2 device (Invitrogen) and blocked with TBS buffer (Intercept® Blocking Buffer, LI-COR Biosciences). Primary antibodies were incubated overnight at 4°C and secondary antibodies (IRDye Infrared Dyes from LI-COR Biosciences) 1 hour at room temperature. Used primary antibody were: anti-CycK (cat#A301-939A, Bethyl Laboratories, dil. 1:1000) and anti-β-actin (cat#A5441, Sigma-Aldrich, dil. 1:5000). Membranes were scanned using a c500 Imaging System (Azure Biosystems) and densitometric quantification were performed using imaged software. Protein levels were normalized against β-actin.

JIMT-1 cells = assay: Cell cycle arrest assessment (propidium iodide); assay type: cell-based, human
Experimental: 1×10^6 JIMT-1 cells were plated in 3mL of DMEM/FBS 90:10 (v/v) in 6-well plates and incubated overnight. Cells were treated with the compound 2384 of the invention or with CR8 for 24h. Cells were then harvested and washed three times with PBS. Cells were suspended into 300µL of propidium iodide working solution (0.05mg/mL) and incubated for 45 minutes at 4°C in the dark. Analysis was performed using a BD Fortessa flow cytometer controlled by BD FACSDiva software (BD Biosciences) and data were analyzed using FlowJo software (BD Bioscience).

A549 = assay: In vitro cytotoxicity assay (MTT); assay type: cell-based; settings: Homo sapiens, 144 h, 6 days incubation
Experimental: as §1

Caco-2 = assay: In vitro cytotoxicity assay (MTT); assay type: cell-based; settings: Homo sapiens, 144 h, 6 days incubation
Experimental: as §1

HCT-116 = assay: In vitro cytotoxicity assay (MTT); assay type: cell-based; settings: Homo sapiens, 144 h, 6 days incubation
Experimental: as §1

HT-29 = assay: In vitro cytotoxicity assay (MTT); assay type: cell-based; settings: Homo sapiens, 144 h, 6 days incubation
Experimental: as §1

MCF-7 = assay: In vitro cytotoxicity assay (MTT); assay type: cell-based; settings: Homo sapiens, MCF7, 144 h, 6 days incubation
Experimental: as §1

OE-19 = assay: In vitro cytotoxicity assay (MTT); assay type: cell-based; settings: Homo sapiens, OE19, 144 h, 6 days incubation
Experimental: as §1

BXPC3 = assay: In vitro cytotoxicity assay (MTT); assay type: cell-based; settings: Homo sapiens, BXPC-3, 144 h, 6 days incubation
Experimental: as §1

[2] = Homo sapiens, MDA-MB-231, 144 h
[3] = Homo sapiens, MDA-MB-453, 144 h

Question: Which IC50 (BT-474) does the source give for `CC[C@H](CO)Nc1nc(NCc2ccc(-c3ccccn3)cc2)c2ncn(C(C)C)c2n1` [CR8, reference compound] here?
Answer: The IC50 was 18.4 nM.

Question: And the IC50 (JIMT-1)?
Answer: Its IC50 is 25.2 nM.

Question: What about the IC50 (MDA-MB-231) of the same compound?
Answer: Its IC50 is 10.4 nM.

Question: And the IC50 (MDA-MB-453)?
Answer: The IC50 was 40.3 nM.

Question: What about the IC50 (NCI-N87) of the same compound?
Answer: The IC50 was 62.2 nM.

Question: And the IC50 (SKBR-3)?
Answer: The IC50 was 30.6 nM.

Question: What about the “in vitro cytotoxicity potency” value [1] of the same compound?
Answer: Its value is “potencies in the high nanomolar range”.

Question: What about the CycK degradation (CycK; 10nM, 2h treatment of JIMT-1 cells) of the same compound?
Answer: The CycK degradation was “no CycK was observed”.

Question: What about the cell cycle analysis (JIMT-1 cells; 24h at 50 nM) of the same compound?
Answer: Its cell cycle analysis is “arrest in G2/M phase”.

Question: And the cell cycle analysis (JIMT-1 cells; 24h at 2, 5, and 10 nM)?
Answer: Its cell cycle analysis is “no impact on cell cycle”.

Question: How did the IC50 (BT-474; Homo sapiens, BT-474, 144 h) turn out when `CC(C)c1cnn2c(NCc3ccc(-c4ccccn4)cc3)nc(N[C@H]3CC[C@H](N)CC3)nc12` [Compound 2420, N2-((1r,4r)-4-aminocyclohexyl)-8-isopropyl-N4-(4-(pyridin-2-yl)benzyl)pyrazolo[1,5-a][1,3,5]triazine-2,4-diamine] was run?
Answer: Its IC50 is 3.41 nM.

Question: What about the IC50 (JIMT-1; Homo sapiens, 144 h) of the same compound?
Answer: The IC50 was 0.61 nM.

Question: And the IC50 (MDA-MB-231; [2])?
Answer: Its IC50 is 0.7 nM.

Question: What about the IC50 (MDA-MB-453; [3]) of the same compound?
Answer: The IC50 was 2.73 nM.

Question: And the IC50 (NCI-N87; Homo sapiens, NCI-N87, 144 h)?
Answer: The IC50 was 4.93 nM.

Question: And the IC50 (SKBR-3; Homo sapiens, SK-BR-3, 144 h)?
Answer: The IC50 was 3.25 nM.

Question: And the IC50 (A549)?
Answer: Its IC50 is 1.99 nM.

Question: What about the IC50 (Caco-2) of the same compound?
Answer: The IC50 was 56.1 nM.

Question: And the IC50 (HCT-116)?
Answer: The IC50 was 4.4 nM.

Question: And the IC50 (HT-29)?
Answer: Its IC50 is 1.74 nM.

Question: What about the IC50 (MCF-7) of the same compound?
Answer: The IC50 was 7.78 nM.

Question: And the IC50 (OE-19)?
Answer: The IC50 was 6.91 nM.

Question: What does the source list for `CC(C)c1cnn2c(NCc3ccc(-c4ccccn4)cc3)nc(NC3CCNCC3)nc12` [Compound 2428]?
Answer: IC50 (BT-474; Homo sapiens, BT-474, 144 h): 3.73 nM; IC50 (JIMT-1; Homo sapiens, 144 h): 0.92 nM; IC50 (MDA-MB-231; [2]): 2.31 nM; IC50 (MDA-MB-453; [3]): 3.11 nM; IC50 (NCI-N87; Homo sapiens, NCI-N87, 144 h): 4.5 nM; IC50 (SKBR-3; Homo sapiens, SK-BR-3, 144 h): 1.94 nM; IC50 (A549): 2.22 nM; IC50 (Caco-2): 24.2 nM; IC50 (HCT-116): 5.31 nM; IC50 (HT-29): 0.83 nM; IC50 (MCF-7): 9.12 nM; IC50 (OE-19): 7.84 nM

Question: How did the IC50 (BT-474; Homo sapiens, BT-474, 144 h) turn out when `Brc1cnn2c(NCc3ccc(-c4ccccn4)cc3)nc(NC3CCNCC3)nc12` [Compound 2388, 8-bromo-N2-(piperidin-4-yl)-N4-(4-(pyridin-2-yl)benzyl)pyrazolo[1,5-a][1,3,5]triazine-2,4-diamine] was run?
Answer: Its IC50 is 1.64 nM.

Question: What about the IC50 (JIMT-1; Homo sapiens, 144 h) of the same compound?
Answer: Its IC50 is 0.64 nM.

Question: And the IC50 (MDA-MB-231; [2])?
Answer: The IC50 was 0.76 nM.

Question: What about the IC50 (MDA-MB-453; [3]) of the same compound?
Answer: Its IC50 is 1.27 nM.

Question: What about the IC50 (NCI-N87; Homo sapiens, NCI-N87, 144 h) of the same compound?
Answer: Its IC50 is 1.4 nM.

Question: What about the IC50 (SKBR-3; Homo sapiens, SK-BR-3, 144 h) of the same compound?
Answer: Its IC50 is 1.68 nM.

Question: And the IC50 (A549)?
Answer: The IC50 was 0.65 nM.

Question: What about the IC50 (BXPC3) of the same compound?
Answer: The IC50 was 1.97 nM.

Question: What about the IC50 (Caco-2) of the same compound?
Answer: The IC50 was 4.46 nM.

Question: What about the IC50 (HCT-116) of the same compound?
Answer: Its IC50 is 1.66 nM.

Question: What about the IC50 (HT-29) of the same compound?
Answer: Its IC50 is 0.23 nM.

Question: What about the IC50 (MCF-7) of the same compound?
Answer: Its IC50 is 5.4 nM.

Question: What about the IC50 (OE-19) of the same compound?
Answer: Its IC50 is 3.77 nM.

Question: `CN(C)C/C=C/C(=O)Nc1ccc(C(=O)N2CCC[C@@H](Nc3ncc(Cl)c(-c4c[nH]c5ccccc45)n3)C2)cc1` [THZ-531, reference compound] was tested. Which CycK protein content (CycK; JIMT-1 cells, 1µM, 2h) did it give?
Answer: Its CycK protein content is “no impact on CycK protein content”.
